From US20110136916A1, “6-SHOGAOL FOR USING IN A METHOD FOR THE TREATMENT OF LEUKEMIA” (China Pharmaceutical University, priority 2009, published 2011)
“Also recorded” adds a separate entry of the source. Like-named read-outs stand apart in the source and are kept apart here.

Experiments:
[1] = system: human acute T cell leukemic cell Jurkat; assay: MTT anti-proliferation, Jurkat; type: cell-based; settings: for growth inhibition (activities of cells vs control): 1-20 μM; for IC50: MTT
Experimental: (§1) Cells in logarithmic growth phase were collected and then inoculated in 1˜2×10^4 cells/well in a 96-well plate respectively according to the sizes of cells and whether they attached to the wall, the cells were centrifuged and the supernatant was removed after growing for 24 hours, and then drug administration was carried out according to the groups as below: the drug group and the drug free group were set up for tumor cells (the concentrations ranged from 1˜20 μM), 5 or 6 duplicates were set for each group and the cells were incubated for 24 or 72 hours. The supernatant was removed and 100 μl serum free culture solution containing 0.5 mg/ml MTT (tetrazolium) was added for further incubation for 4 hours, subsequently 100 μl DMSO (dimethyl sulfoxide) was added and the plate was kept on the micro-shaker for 10 minutes, and the OD value was determined on a micro-plate reader at the wavelength of 570 nm. Evaluations on the toxicity were carried out on normal human cell line LO-2 and each test was repeated for three times.

[2] = system: normal human cell line LO-2; assay: MTT toxicity evaluation on normal cell line LO-2; type: cell-based; settings: for growth inhibition of normal hepatic cell line LO-2: LO-2, 1-20 μM
Experimental: as §1

[3] = system: peripheral blood lymphocytes (PBMC) of clinical leukemia patients; assay: Annexin V/PI apoptosis of PBMC from leukemia patients; type: cell-based, human; settings: 24 hours
Experimental: (§2) After application by the research group and approval by the Ethics Committee of the hospital, the leukemia patients (healthy volunteers) signed the informed consent and their fresh blood was collected and transferred into heparin anticoagulation tubes, then the same volume of serum free D-Hank buffer (preheated at 37° C.) was added to re-suspend the cells, and the suspension was added to the pre-laid human lymphocyte separating medium (preheated at 37° C.), and the volume ratio between the lymphocyte separating medium and the cell suspension should be no lower than 1:1, and the mixture was centrifuged at room temperature (20-30° C.) at 500×g by a horizontal centrifuge for 30 minutes. The upper layer plasma was removed and the white fog layer in the middle was carefully collected and transferred to 5 mL (or 1-2 times of the volume) PBS (or serum free buffer for cell culture), then it was centrifuged at 200×g or 1000 rpm for 10 minutes at room temperature (20-30° C.), and the supernatant was removed, and the obtained precipitation was the peripheral blood lymphocytes (PBMC). The cells were rinsed twice according to the above-mentioned operations at 500×g by the horizontal centrifuge for 10 minutes at room temperature (20-30° C.), subsequently the cells were collected and their cell vitality was detected by using dye exclusion method for living cells (Trypan blue).
(§3) The cells were added to a 24-well plate in 3×10^5 cells/mL/well and different concentrations of 6-shogaol (10 and 20 μM) for treatment for 24 hours after they were incubated for 24 hours. Negative control group (the group without drug) and the treatment group with 6-shogaol were set up for PBMCs from different individuals respectively. After the cells were treated with 6-shogaol for 24 hours, they were transferred into 10 mL glass centrifuge tubes and centrifuged at 500 rpm (or 100×g) for 5 minutes to remove the supernatant. The cells were then rinsed with 0.01 M PBS at 500 rpm (or 100×g) for 5 minutes twice. Subsequently, after adding binding solution and staining according to the directions for use of Annexin V/PI double staining kit (BD Company), flow cytometry analysis (Becton Dickinson FACScan Flow Cytometer) was carried out. The FACS data were analyzed by professional operators of the flow cytometer by using FLOWJO software (Tree Star, Calif.) software, the apoptotic rate was counted by the sum of early apoptosis and late apoptosis, and the results were shown in Table 4 and Table 5.

[4] = system: peripheral blood lymphocytes (PBMC) of healthy volunteers; assay: Annexin V/PI apoptosis of PBMC from healthy volunteers; type: cell-based, human; settings: 24 hours
Experimental: as §2, §3

CCCCC/C=C/C(=O)CCc1ccc(O)c(OC)c1 [6-shogaol]
growth inhibition (activities of cells vs control) ([1]; 24 hours, FIG. 3): significantly decreased
growth inhibition (activities of cells vs control) ([1]; 72 hours, FIG. 7): significantly decreased
IC50 ([1]; Homo sapiens, 24 h, 24 hours, n = 3, read-out: Mean IC50 after 24 hours): < 10 µM
IC50 ([1]; Homo sapiens, 72 h, 72 hours, n = 3, read-out: Mean IC50 after 72 hours): < 5 µM
IC50 ([1]; 24 hours, n = 3, read-out: Mean IC50 after 24 hours): 5.6 ± 0.4 µM
IC50 ([1]; 72 hours, n = 3, read-out: Mean IC50 after 72 hours): 3.3 ± 0.3 µM
growth inhibition of normal hepatic cell line LO-2 ([2]; 24 hours): didn't inhibit the proliferation
growth inhibition of normal hepatic cell line LO-2 ([2]; 72 hours): didn't inhibit the proliferation
toxicity on normal hepatic cells LO-2 ([2]; summary statement): No toxic reaction was found; also recorded: low toxicity
induction of apoptosis of PBMC of leukemia patients (t-test) ([3]; 30 cases of leukemia patients, 10 and 20 μM): significantly induce the apoptosis
Apoptotic rate of 10 μM 6-shogaol ([3]; PBMC of patient P1, 10 μM): 38.5 ± 3.7a %
Apoptotic rate of 20 μM 6-shogaol ([3]; PBMC of patient P1, 20 μM): 56.9 ± 2.2a %
Apoptotic rate of 10 μM 6-shogaol ([3]; PBMC of patient P2, 10 μM): 27.6 ± 1.3a %
Apoptotic rate of 20 μM 6-shogaol ([3]; PBMC of patient P2, 20 μM): 50.1 ± 5.4a %
Apoptotic rate of 10 μM 6-shogaol ([3]; PBMC of patient P3, 10 μM): 47.9 ± 1.6a %
Apoptotic rate of 20 μM 6-shogaol ([3]; PBMC of patient P3, 20 μM): 72.9 ± 3.1a %
Apoptotic rate of 10 μM 6-shogaol ([3]; PBMC of patient P4, 10 μM): 35.7 ± 3.8a %
Apoptotic rate of 20 μM 6-shogaol ([3]; PBMC of patient P4, 20 μM): 69.7 ± 1.6a %
Apoptotic rate of 10 μM 6-shogaol ([3]; PBMC of patient P5, 10 μM): 40.5 ± 6.1a %
Apoptotic rate of 20 μM 6-shogaol ([3]; PBMC of patient P5, 20 μM): 61.9 ± 4.2a %
Apoptotic rate of 10 μM 6-shogaol ([3]; PBMC of patient P6, 10 μM): 29.3 ± 1.7a %
Apoptotic rate of 20 μM 6-shogaol ([3]; PBMC of patient P6, 20 μM): 52.7 ± 2.3a %
Apoptotic rate of 10 μM 6-shogaol ([3]; PBMC of patient P7, 10 μM): 44.6 ± 3.8a %
Apoptotic rate of 20 μM 6-shogaol ([3]; PBMC of patient P7, 20 μM): 75.9 ± 1.7a %
Apoptotic rate of 10 μM 6-shogaol ([3]; PBMC of patient P8, 10 μM): 31.3 ± 2.7a %
Apoptotic rate of 20 μM 6-shogaol ([3]; PBMC of patient P8, 20 μM): 64.7 ± 2.4a %
Apoptotic rate of 10 μM 6-shogaol ([3]; PBMC of patient P9, 10 μM): 27.5 ± 2.9a %
Apoptotic rate of 20 μM 6-shogaol ([3]; PBMC of patient P9, 20 μM): 44.8 ± 3.9a %
Apoptotic rate of 10 μM 6-shogaol ([3]; PBMC of patient P10, 10 μM): 42.4 ± 3.1a %
Apoptotic rate of 20 μM 6-shogaol ([3]; PBMC of patient P10, 20 μM): 73.5 ± 3.7a %
Apoptotic rate of 10 μM 6-shogaol ([3]; PBMC of patient P11, 10 μM): 29.7 ± 2.4a %
Apoptotic rate of 20 μM 6-shogaol ([3]; PBMC of patient P11, 20 μM): 50.1 ± 3.3ac %
Apoptotic rate of 10 μM 6-shogaol ([3]; PBMC of patient P12, 10 μM): 49.3 ± 4.1a %
Apoptotic rate of 20 μM 6-shogaol ([3]; PBMC of patient P12, 20 μM): 80.8 ± 5.1ac %
Apoptotic rate of 10 μM 6-shogaol ([3]; PBMC of patient P13, 10 μM): 55.9 ± 2.7a %
Apoptotic rate of 20 μM 6-shogaol ([3]; PBMC of patient P13, 20 μM): 82.9 ± 2.5ac %
Apoptotic rate of 10 μM 6-shogaol ([3]; PBMC of patient P14, 10 μM): 26.7 ± 1.9a %
Apoptotic rate of 20 μM 6-shogaol ([3]; PBMC of patient P14, 20 μM): 39.7 ± 2.6ac %
Apoptotic rate of 10 μM 6-shogaol ([3]; PBMC of patient P15, 10 μM): 34.5 ± 3.1a %
Apoptotic rate of 20 μM 6-shogaol ([3]; PBMC of patient P15, 20 μM): 47.9 ± 4.2ab %
Apoptotic rate of 10 μM 6-shogaol ([3]; PBMC of patient P16, 10 μM): 39.3 ± 2.3a %
Apoptotic rate of 20 μM 6-shogaol ([3]; PBMC of patient P16, 20 μM): 46.7 ± 1.6ab %
Apoptotic rate of 10 μM 6-shogaol ([3]; PBMC of patient P17, 10 μM): 44.6 ± 3.8a %
Apoptotic rate of 20 μM 6-shogaol ([3]; PBMC of patient P17, 20 μM): 55.9 ± 1.7ab %
Apoptotic rate of 10 μM 6-shogaol ([3]; PBMC of patient P18, 10 μM): 33.1 ± 3.7a %
Apoptotic rate of 20 μM 6-shogaol ([3]; PBMC of patient P18, 20 μM): 54.7 ± 2.6ac %
Apoptotic rate of 10 μM 6-shogaol ([3]; PBMC of patient P19, 10 μM): 37.9 ± 4.9a %
Apoptotic rate of 20 μM 6-shogaol ([3]; PBMC of patient P19, 20 μM): 51.8 ± 7.9ac %
Apoptotic rate of 10 μM 6-shogaol ([3]; PBMC of patient P20, 10 μM): 52.9 ± 2.7a %
Apoptotic rate of 20 μM 6-shogaol ([3]; PBMC of patient P20, 20 μM): 63.6 ± 1.2ab %
Apoptotic rate of 10 μM 6-shogaol ([3]; PBMC of patient P21, 10 μM): 31.5 ± 4.3a %
Apoptotic rate of 20 μM 6-shogaol ([3]; PBMC of patient P21, 20 μM): 44.5 ± 2.4ab %
Apoptotic rate of 10 μM 6-shogaol ([3]; PBMC of patient P22, 10 μM): 20.5 ± 3.1a %
Apoptotic rate of 20 μM 6-shogaol ([3]; PBMC of patient P22, 20 μM): 38.5 ± 2.1ac %
Apoptotic rate of 10 μM 6-shogaol ([3]; PBMC of patient P23, 10 μM): 36.2 ± 5.7a %
Apoptotic rate of 20 μM 6-shogaol ([3]; PBMC of patient P23, 20 μM): 67.1 ± 3.7ac %
Apoptotic rate of 10 μM 6-shogaol ([3]; PBMC of patient P24, 10 μM): 42.7 ± 2.4a %
Apoptotic rate of 20 μM 6-shogaol ([3]; PBMC of patient P24, 20 μM): 58.7 ± 3.9ac %
Apoptotic rate of 10 μM 6-shogaol ([3]; PBMC of patient P25, 10 μM): 47.8 ± 2.9a %
Apoptotic rate of 20 μM 6-shogaol ([3]; PBMC of patient P25, 20 μM): 69.1 ± 3.3ac %
Apoptotic rate of 10 μM 6-shogaol ([3]; PBMC of patient P26, 10 μM): 43.3 ± 4.9a %
Apoptotic rate of 20 μM 6-shogaol ([3]; PBMC of patient P26, 20 μM): 56.9 ± 5.2ac %
Apoptotic rate of 10 μM 6-shogaol ([3]; PBMC of patient P27, 10 μM): 30.9 ± 1.7a %
Apoptotic rate of 20 μM 6-shogaol ([3]; PBMC of patient P27, 20 μM): 47.6 ± 3.6ab %
Apoptotic rate of 10 μM 6-shogaol ([3]; PBMC of patient P28, 10 μM): 39.6 ± 2.2a %
Apoptotic rate of 20 μM 6-shogaol ([3]; PBMC of patient P28, 20 μM): 56.3 ± 3.8ac %
Apoptotic rate of 10 μM 6-shogaol ([3]; PBMC of patient P29, 10 μM): 33.7 ± 3.5a %
Apoptotic rate of 20 μM 6-shogaol ([3]; PBMC of patient P29, 20 μM): 42.4 ± 2.9ab %
Apoptotic rate of 10 μM 6-shogaol ([3]; PBMC of patient P30, 10 μM): 28.6 ± 2.9a %
Apoptotic rate of 20 μM 6-shogaol ([3]; PBMC of patient P30, 20 μM): 51.9 ± 4.2ac %
effect on apoptosis of PBMC of healthy volunteers (t-test) ([4]; 10 cases of healthy volunteers, 10 and 20 μM): no significant difference; also recorded: no significant effects
Apoptotic rate of 10 μM 6-shogaol ([4]; PBMC of healthy volunteer N1, 10 μM): 17.5 ± 0.8%
Apoptotic rate of 20 μM 6-shogaol ([4]; PBMC of healthy volunteer N1, 20 μM): 22.8 ± 0.6%
Apoptotic rate of 10 μM 6-shogaol ([4]; PBMC of healthy volunteer N2, 10 μM): 13.6 ± 0.9%
Apoptotic rate of 20 μM 6-shogaol ([4]; PBMC of healthy volunteer N2, 20 μM): 12.3 ± 1.4%
Apoptotic rate of 10 μM 6-shogaol ([4]; PBMC of healthy volunteer N3, 10 μM): 27.6 ± 2.4%
Apoptotic rate of 20 μM 6-shogaol ([4]; PBMC of healthy volunteer N3, 20 μM): 31.9 ± 1.7%
Apoptotic rate of 10 μM 6-shogaol ([4]; PBMC of healthy volunteer N4, 10 μM): 8.5 ± 0.8%
Apoptotic rate of 20 μM 6-shogaol ([4]; PBMC of healthy volunteer N4, 20 μM): 9.7 ± 1.2%
Apoptotic rate of 10 μM 6-shogaol ([4]; PBMC of healthy volunteer N5, 10 μM): 16.6 ± 4.8%
Apoptotic rate of 20 μM 6-shogaol ([4]; PBMC of healthy volunteer N5, 20 μM): 12.8 ± 3.6%
Apoptotic rate of 10 μM 6-shogaol ([4]; PBMC of healthy volunteer N6, 10 μM): 14.6 ± 0.9%
Apoptotic rate of 20 μM 6-shogaol ([4]; PBMC of healthy volunteer N6, 20 μM): 12.3 ± 1.4%
Apoptotic rate of 10 μM 6-shogaol ([4]; PBMC of healthy volunteer N7, 10 μM): 14.6 ± 1.4%
Apoptotic rate of 20 μM 6-shogaol ([4]; PBMC of healthy volunteer N7, 20 μM): 15.9 ± 0.7%
Apoptotic rate of 10 μM 6-shogaol ([4]; PBMC of healthy volunteer N8, 10 μM): 18.5 ± 1.8%
Apoptotic rate of 20 μM 6-shogaol ([4]; PBMC of healthy volunteer N8, 20 μM): 21.7 ± 1.6%
Apoptotic rate of 10 μM 6-shogaol ([4]; PBMC of healthy volunteer N9, 10 μM): 12.5 ± 2.9%
Apoptotic rate of 20 μM 6-shogaol ([4]; PBMC of healthy volunteer N9, 20 μM): 14.8 ± 0.9%
Apoptotic rate of 10 μM 6-shogaol ([4]; PBMC of healthy volunteer N10, 10 μM): 12.9 ± 1.3%
Apoptotic rate of 20 μM 6-shogaol ([4]; PBMC of healthy volunteer N10, 20 μM): 16.5 ± 0.7%
